{"source": "patent US10473645B2", "about": "“Methods for identifying a receptor for a ligand and uses thereof” (UNIVERSITE DE GENEVE, priority 2014, dated 2019)", "tested_on": "Olfr983", "assay": "OR transcript level by RT-qPCR after in vivo odorant exposure", "design": "species or system mouse; key to olfr983 candidate OR (RNAseq) confirmed by qPCR: The transcript downregulation of 21 out of the 26 olfactory receptor candidates obtained by RNAseq was confirmed by qPCR; false RNAseq positive candidates, namely OR candidates for which in fact mRNA was not downregulated following acetophenone exposure", "conditions": "for Olfr983 mRNA level relative to unexposed controls: 5% odorant, 5 hours, in vivo, RT-qPCR", "procedure": "In vivo exposure to odorant: Starting 48 h before experiments, mice were habituated to pure DMSO on a cotton ball. 200 μl were pipetted directly onto the cotton and placed in the cage, replacing any cotton that was already in the cage for nest-making purposes.\nOn the day of the experiment, mice receiving odorants were transferred to a different room, where they were exposed to a cotton ball on which 200 μl of odorant diluted in pure DMSO were deposited. Exposures started in the morning between 8 and 10 am (that is two hours after lights were on) and mice were killed and dissected between 1 and 3 pm. […] If a number of different odorants were tested in the same experiment, a different overpressurized room would always be used for each odorant to avoid odor cross-contamination.\nAfter odorant exposure, mice were killed by cervical dislocation and immediately decapitated. The main olfactory epithelia (MOE), were harvested in their entirety and transferred to a tube containing 600 μl of lysis buffer and β-mercaptoethanol (RNAeasy kit, Qiagen, following the manufacturer protocol) and a 0.5 cm diameter steel ball, and then put on ice. Samples were then homogenized using a FastPrep®-24 instrument (MP Biomedicals) at 6 m/s for 30 s and left on ice. RNA extraction was performed on all samples in parallel using the Qiagen RNeasy Mini® kit following the manufacturer's instructions. Two DNase treatments were performed on all samples: first using the Qiagen RNase-Free DNase Set® and then using the Life Technologies Ambion DNase I® kit. RNA samples were then aliquoted and stored at −80° C.\nRNA concentrations were determined using an Amersham Ultrospec® 3100 Pro spectrophotometer, and RNA quality was evaluated with an Agilent Technologies 2100 Bioanalyzer®. […]\nqPCR Ct values were analyzed using an in-house developed Microsoft Excel® macro file. […] Ct values were converted to quantities relative to the maximum for each given gene. Selected reference genes were then analyzed for variance using the geNorm algorithm. […]"}
{"smiles": "CC(=O)c1ccccc1", "note": "[acetophenone]", "values": [{"measurement": "olfr983 candidate OR (RNAseq) confirmed by qPCR", "setting": "5% acetophenone exposure", "result": "y"}, {"measurement": "Olfr983 mRNA level relative to unexposed controls", "result": "decrease"}, {"measurement": "Olfr983 mRNA level relative to unexposed controls", "setting": "listed as Acetophenone", "result": "downregulates"}]}
